Key:
[1] = biological target: T1, FAK (Homo sapiens, UniProt Q05397); assay: FAK-HiBiT Degradation Assay; format: cell-based; conditions: for DC50: read-out: FAK HiBiT EC50; for FAK HiBiT Ymin: lower limit of the four parameter fit (value A), Ymax derived using DMSO control, JHH-4-FAK-HiBiT cells, two hours
T1 construct: homozygous knock-in of a HiBiT tag (Promega Corporation, Madison, WI) to the C-terminus of the FAK gene in its natural genomic locus; endogenous in cells; host or cells: JHH-4-FAK-HiBiT clone d01 (CRISPR-Cas9 knock-in at the endogenous locus)
T1 sequence (Q05397 whole entry): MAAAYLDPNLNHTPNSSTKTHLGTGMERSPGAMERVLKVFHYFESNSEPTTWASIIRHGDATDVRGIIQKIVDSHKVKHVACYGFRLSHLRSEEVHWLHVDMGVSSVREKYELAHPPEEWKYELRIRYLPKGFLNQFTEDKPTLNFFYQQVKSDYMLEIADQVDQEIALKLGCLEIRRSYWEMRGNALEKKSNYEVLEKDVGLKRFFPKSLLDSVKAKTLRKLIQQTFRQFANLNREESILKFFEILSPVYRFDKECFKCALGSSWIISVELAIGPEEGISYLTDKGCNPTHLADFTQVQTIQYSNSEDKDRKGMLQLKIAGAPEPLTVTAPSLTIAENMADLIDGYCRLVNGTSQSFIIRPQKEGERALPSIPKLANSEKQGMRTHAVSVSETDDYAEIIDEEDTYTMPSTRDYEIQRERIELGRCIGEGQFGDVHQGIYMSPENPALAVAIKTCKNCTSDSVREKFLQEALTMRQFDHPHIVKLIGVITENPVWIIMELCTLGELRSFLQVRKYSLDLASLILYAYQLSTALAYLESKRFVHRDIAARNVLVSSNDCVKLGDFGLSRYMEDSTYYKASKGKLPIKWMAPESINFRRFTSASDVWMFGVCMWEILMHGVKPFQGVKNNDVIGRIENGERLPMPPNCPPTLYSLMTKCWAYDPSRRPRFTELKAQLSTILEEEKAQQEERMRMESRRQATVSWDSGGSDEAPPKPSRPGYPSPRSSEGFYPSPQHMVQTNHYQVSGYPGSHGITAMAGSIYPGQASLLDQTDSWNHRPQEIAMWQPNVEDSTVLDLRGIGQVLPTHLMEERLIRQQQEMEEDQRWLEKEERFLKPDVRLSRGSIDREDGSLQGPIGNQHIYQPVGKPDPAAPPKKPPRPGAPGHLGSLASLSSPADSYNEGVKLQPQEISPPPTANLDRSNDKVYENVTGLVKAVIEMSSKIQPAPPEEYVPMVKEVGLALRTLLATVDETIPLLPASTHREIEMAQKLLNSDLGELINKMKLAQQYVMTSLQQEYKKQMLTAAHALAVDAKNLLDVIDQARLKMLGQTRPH
From the text: To generate JHH-4-FAK-HiBiT cells for the FAK degradation assay, JHH-4 cells (Japanese Collection of Research Biosources Cell Bank, Japan) were transfected with ribonucleoprotein reagents to introduce, by CRISPR-Cas9 editing, the homozygous knock-in of a HiBiT tag (Promega Corporation, Madison, WI) to the C-terminus of the FAK gene in its natural genomic locus. Clonal cell populations were established by expanding single cells after CRISPR-Cas9 editing, with a clonal cell line named JHH-4-FAK-HiBiT clone d01 confirmed by next generation DNA sequencing to contain the expected HiBiT edited FAK gene and was selected for FAK degradation screening. Cells were selected and maintained in complete DMEM media (DMEM, 10% Heat Inactivated FBS, and Non-Essential Amino Acids at 37° C. and 5% CO2). Cells were passaged every 3-4 days by reseeding 0.5×10^6 cells in a T75 flask.
Cells were dispensed into 384-well white plates (Corning #3570, NY) that were pre-spotted with compounds using an acoustic dispenser (Echo acoustic transfer system, Beckman Coulter Life Sciences, Carlsbad, CA) as a 10-point dose response curve with a 3-fold dilution starting at 1 μM and including a DMSO control. Twenty-five microliters of media containing 2000 JHH-4-FAK-HiBiT Clone d01 cells was dispensed per well. Assay plates were incubated at 37° C. with 5% CO2 for two hours. After incubation, 25 μL of Nano-Glo HiBiT Lytic Reagent Working Solution (Promega Corporation, Madison, WI) was added to each well and incubated at room temperature for 10 minutes protected from light. After 10 minutes, luminescence was read on a PHERAstar luminometer (BMG Labtech, Cary, NC).
To determine the half-maximal effective concentration (EC50) values for FAK-HiBIT degradation, a four parameter logistic model was used: (Sigmoidal Dose-Response Model)(FIT=(A+((B−A)/1+((C/x)^D)))) where C is the inflection point (EC50), D is the Hill slope, and A and B are the low and high limits of the fit respectively). The lower limit of the fit (value A) is referred to as Ymin. The maximum limit constraint, Ymax, was derived using DMSO control. The curves were processed and evaluated using Dotmatics Atlas (Insightful Science, LLC, Boston, MA).

[2] = system: CAL-51 cells; assay: CAL-51 Cell Proliferation Assay; format: cell-based; conditions: for EC50: Homo sapiens, 120 hours incubation, 10-point dose response, 4-fold dilutions starting at 10 μM, Cell-Titer-Glo, read-out: CAL-51 Prolif EC50; for CAL-51 Prolif Ymin: minimal percent of DMSO control observed in the concentrations tested (Ymin-obs), 120 hours
From the text: CAL-51 cells were obtained from Bristol Myers Squibb internal cell banks (originally sourced from DSMZ-German Collection of Microorganisms and Cell Cultures GmbH, Germany) and cultured in RPMI complete media (RPMI-1640, 10% Fetal Bovine serum, 1× Antibiotic-Antimycotic, and 1× Non-Essential Amino Acids). Compounds were dispensed into 384-well plates using an acoustic dispenser (Beckman Coulter Life Sciences, Carlsbad, CA) in duplicate with 14 compounds on each plate. For each compound, a 10-point dose response was printed at 4-fold dilutions starting at 10 μM. The DMSO concentration was kept constant for a final assay concentration of 0.1% per well assuming 50 uL final media volume. Compound plates were sealed and frozen at −20° C. until use.
For each assay batch, compound plates were thawed and allowed to reach room temperature, and cells were seeded at 350 cells per well in 50 μl complete RPMI media. After 120 hours of incubation at 37° C. and 5% CO2, cells were lysed by addition of 25 μL of Cell-Titer-Glo Reagent (Promega Corporation, Madison, WI), as per manufacturer's instructions, protected from light, shaken for 20 minutes, and total luminescence read by a CLARIOstar Plus plate reader (BMG LabTech, Cary, NC). Total luminescence signal is linearly correlated with cell number remaining in the well.
Luminescence data was processed per plate by subtracting reagent-only “blank” well luminescence from all measured values and calculating a percent of DMSO control value for each treatment well. Then, to determine the half-maximal effective concentration (EC50) values for cell growth inhibition, a four parameter logistic model was fit to the data for each DMSO-normalized compound: Sigmoidal Dose-Response Model: (FIT=(A+((B−A)/1+((C/x)^D)))) where C is the inflection point (EC50), D is the Hill slope, and A and B are the low and high limits of the fit respectively. The lower limit of the fit (value A) is referred to as Ymin-calculated. The minimal percent of DMSO control that is observed in the concentrations tested for each compound is labeled as “Ymin-obs”, and was recorded and reported in the tables. Sigmoidal fit curves were processed and evaluated using Dotmatics Atlas (Insightful Science, LLC, Boston, MA).

[3] = JHH-4-FAK-HiBiT clone d01 cells, two hours incubation, 10-point dose response, 3-fold dilution starting at 1 μM, Nano-Glo HiBiT luminescence

DC50 [1, 3] | FAK HiBiT Ymin [1] | EC50 [1, 3] | Structure (SMILES) | EC50 [2] | CAL-51 Prolif Ymin [2]
0.98 nM | 8.36 | – | O=C1CCC(N2Cc3cc(Cn4ncc5c(-c6ncccc6Cl)c(F)c(N6CC(F)C6)nc54)ccc3C2=O)C(=O)N1 (stereo not shown) [Example 36, 3-(5-{[4-(3-chloropyridin-2-yl)-5-fluoro-6-(3-fluoroazetidin-1-yl)-1H-pyrazolo[3,4-b]pyridin-1-yl]methyl}-1-oxo-2,3-dihydro-1H-isoindol-2-yl)piperidine-2,6-dione] | 0.5 nM | 24.38
0.89 nM | 7.90 | – | Cc1nc2c(-c3ccc(C(F)(F)F)cc3Cl)cc(N3CC(F)C3)nc2n1Cc1ccc2c(c1)CN(C1CCC(=O)NC1=O)C2=O (stereo not shown) [Example 20, 3-(5-((7-(2-chloro-4-(trifluoromethyl)phenyl)-5-(3-fluoroazetidin-1-yl)-2-methyl-3H-imidazo[4,5-b]pyridin-3-yl)methyl)-1-oxoisoindolin-2-yl)piperidine-2,6-dione] | 0.37 nM | 24.38
0.38 nM | 7.63 | – | O=C1CC[C@H](N2Cc3cc(Cn4ccc5c(-c6ncc(C(F)(F)F)cc6Cl)nc(N6CC(F)C6)nc54)ccc3C2=O)C(=O)N1 [Example 28, (S)-3-(5-((4-(3-chloro-5-(trifluoromethyl)pyridin-2-yl)-2-(3-fluoroazetidin-1-yl)-7H-pyrrolo[2,3-d]pyrimidin-7-yl)methyl)-1-oxoisoindolin-2-yl)piperidine-2,6-dione] | 0.45 nM | 25.69
1.03 nM | 7.69 | – | Cc1nc2c(-c3ccc(F)cc3F)cc(N3CC(F)C3)nc2n1Cc1ccc2c(c1)CN(C1CCC(=O)NC1=O)C2=O (stereo not shown) [Example 23, 3-(5-((7-(2,4-difluorophenyl)-5-(3-fluoroazetidin-1-yl)-2-methyl-3H-imidazo[4,5-b]pyridin-3-yl)methyl)-1-oxoisoindolin-2-yl)piperidine-2,6-dione] | 0.62 nM | 20.44
95.4 nM | 40.50 | – | N#Cc1cnc(-c2cc(N3CC[C@H](O)C3)nc3c2cnn3Cc2ccc3c(c2)CN([C@H]2CCC(=O)NC2=O)C3=O)c(F)c1 [Example 121, 6-[1-({2-[(3S)-2,6-dioxopiperidin-3-yl]-1-oxo-2,3-dihydro-1H-isoindol-5-yl}methyl)-6-[(3S)-3-hydroxypyrrolidin-1-yl]-1H-pyrazolo[3,4-b]pyridin-4-yl]-5-fluoropyridine-3-carbonitrile] | 1360 nM | 75.47
0.71 nM | 8.83 | – | Cc1cc(C(F)(F)F)cnc1-c1cc(N2CC(F)C2)nc2c1cnn2Cc1ccc2c(c1)CN(C1CCC(=O)NC1=O)C2=O (stereo not shown) [Example 29, 3-(5-{[6-(3-fluoroazetidin-1-yl)-4-[3-methyl-5-(trifluoromethyl)pyridin-2-yl]-1H-pyrazolo[3,4-b]pyridin-1-yl]methyl}-1-oxo-2,3-dihydro-1H-isoindol-2-yl)piperidine-2,6-dione] | 1.23 nM | 30.94
0.56 nM | 6.93 | – | N#Cc1ccc(-c2c(Cl)c(N3CC(F)C3)nc3c2cnn3Cc2ccc3c(c2)CN(C2CCC(=O)NC2=O)C3=O)c(F)c1 (stereo not shown) [Example 10, 4-(5-chloro-1-{[2-(2,6-dioxopiperidin-3-yl)-1-oxo-2,3-dihydro-1H-isoindol-5-yl]methyl}-6-(3-fluoroazetidin-1-yl)-1H-pyrazolo[3,4-b]pyridin-4-yl)-3-fluorobenzonitrile] | 75.4 nM | 33.21
≥ 1000 nM | 89.82 | – | O=C1CCC(N2Cc3cc(Cn4ncc5c(-c6ncc(C(F)(F)F)cc6Cl)cc(N[C@H]6CCOC6)nc54)ccc3C2=O)C(=O)N1 (stereo partly drawn) [Example 132, 3-[5-({4-[3-chloro-5-(trifluoromethyl)pyridin-2-yl]-6-{[(3S)-oxolan-3-yl]amino}-1H-pyrazolo[3,4-b]pyridin-1-yl}methyl)-1-oxo-2,3-dihydro-1H-isoindol-2-yl]piperidine-2,6-dione] | 0.1 nM | 89.52
109 nM | 45.54 | – | O=C1CC[C@H](N2Cc3cc(Cn4ncc5c(-c6ncc(F)cc6F)cc(N6CC[C@H](O)C6)nc54)ccc3C2=O)C(=O)N1 [Example 123, (3S)-3-(5-{[4-(3,5-difluoropyridin-2-yl)-6-[(3S)-3-hydroxypyrrolidin-1-yl]-1H-pyrazolo[3,4-b]pyridin-1-yl]methyl}-1-oxo-2,3-dihydro-1H-isoindol-2-yl)piperidine-2,6-dione] | 28.3 nM | 78.23
3.92 nM | 12.88 | – | N#Cc1ccc(-c2cc(N3CCC3)nc3c2cnn3Cc2ccc3c(c2)CN(C2CCC(=O)NC2=O)C3=O)c(F)c1 (stereo not shown) [Example 62, 4-[6-(azetidin-1-yl)-1-{[2-(2,6-dioxopiperidin-3-yl)-1-oxo-2,3-dihydro-1H-isoindol-5-yl]methyl}-1H-pyrazolo[3,4-b]pyridin-4-yl]-3-fluorobenzonitrile] | – | –
3.57 nM | 9.10 | – | Cc1nn(Cc2ccc3c(c2)CN(C2CCC(=O)NC2=O)C3=O)c2nc(N3CCC3)cc(-c3ccc(C#N)cc3Cl)c12 (stereo not shown) [Example 60, 4-[6-(azetidin-1-yl)-1-{[2-(2,6-dioxopiperidin-3-yl)-1-oxo-2,3-dihydro-1H-isoindol-5-yl]methyl}-3-methyl-1H-pyrazolo[3,4-b]pyridin-4-yl]-3-chlorobenzonitrile] | – | –
73.7 nM | 25.54 | – | CC(C)Nc1cc(-c2ncccc2Cl)c2cnn(Cc3ccc4c(c3)CN(C3CCC(=O)NC3=O)C4=O)c2n1 (stereo not shown) [Example 117, 3-(5-{[4-(3-chloropyridin-2-yl)-6-[(propan-2-yl)amino]-1H-pyrazolo[3,4-b]pyridin-1-yl]methyl}-1-oxo-2,3-dihydro-1H-isoindol-2-yl)piperidine-2,6-dione] | – | –
67.2 nM | 34.23 | – | CC(C)Nc1cc(-c2ccncc2Cl)c2cnn(Cc3ccc4c(c3)CN(C3CCC(=O)NC3=O)C4=O)c2n1 (stereo not shown) [Example 116, 3-(5-{[4-(3-chloropyridin-4-yl)-6-[(propan-2-yl)amino]-1H-pyrazolo[3,4-b]pyridin-1-yl]methyl}-1-oxo-2,3-dihydro-1H-isoindol-2-yl)piperidine-2,6-dione] | – | –
– | 4.03 | 7.86 nM | CN(C)c1cc(-c2ncc(C#N)cc2Cl)c2ccn(Cc3ccc4c(c3)CN(C3CCC(=O)NC3=O)C4=O)c2n1 (stereo not shown) [Example 13, 5-chloro-6-(6-(dimethylamino)-1-((2-(2,6-dioxopiperidin-3-yl)-1-oxoisoindolin-5-yl)methyl)-1H-pyrrolo[2,3-b]pyridin-4-yl)nicotinonitrile] | – | –
